Where two headings read alike, the source gives them in different places.

The values below come from patent US10525063B2, “Methods of reducing mammographic breast density and/or breast cancer risk” (HAVAH THERAPEUTICS PTY LTD., priority 2014, dated 2020).

Series [1] in a line: Serum anastrozole by liquid chromatography-tandem mass spectrometry. In kind it is in vivo, human. To be noted: for concentration at 3 month / concentration at 1 month: human, serum. The procedure: FAI is calculated from a formula where the serum measurement of total testosterone and sex hormone binding globulin are calculated by radio immunoassay. Aromatase inhibitor serum level is determined by liquid chromatography-tandem mass spectrometry.
All thirty having serum drawn at baseline and at 1 year for serum testosterone and sex hormone binding globulin so that free-androgen index could be calculated (FAI=the ratio of the total testosterone level divided by the sex hormone binding globulin level, and then multiplied by a 100 to give a percentage).

Series [2] deals with mammographic breast density. Conditions: background statement; cited from earlier work.
The conditions of series [3]: cited from earlier work.

`CC(C)(C#N)c1cc(Cn2cncn2)cc(C(C)(C)C#N)c1` [anastrozole, 2,2′-[5-(1H-1,2,4-triazol-1-ylmethyl)-1,3-phenylene]bis(2-methylpropanenitrile)]: the “Serum anastrazole (ng/ml) End 1st year 3 month trough, median (range)” value in series [1] (Example 2, 30 patients, s.c. testosterone and anastrozole at 4 months intervals) is 32 (22-39) ng/ml. Also, the concentration at 3 month in series [1] (female, sc, Example 2, 30 patients, s.c. testosterone and anastrozole at 4 months intervals, read-out: Serum anastrazole (ng/ml) 1st 3 month trough, median (range)) was 27 ng/mL; in series [1] (sc, Serum anastrozole, Example 1, Pellet 1 (testosterone 59 mg, anastrozole 2.75 mg, s.c.), 3 month) it was 28 ng/mL; in series [1] (subcutaneous, Serum anastrozole, Example 1, Pellet 2 (testosterone 71 mg, anastrozole 2.75 mg), 3 month), 25 ng/mL; in series [1] (subcutaneous, Serum anastrozole, Example 1, Pellet 3 (testosterone 71 mg, anastrozole 2.75 mg), 3 month), 28 ng/mL. For the same compound, the concentration at 1 month in series [1] (sc, Serum anastrozole, Example 1, Pellet 1 (testosterone 59 mg, anastrozole 2.75 mg, s.c.)) turned out to be 38 ng/mL; in series [1] (subcutaneous, Serum anastrozole, Example 1, Pellet 2 (testosterone 71 mg, anastrozole 2.75 mg)), 35 ng/mL; in series [1] (subcutaneous, Serum anastrozole, Example 1, Pellet 3 (testosterone 71 mg, anastrozole 2.75 mg)), 38 ng/mL.
On to `CC/C(=C(\c1ccccc1)c1ccc(OCCN(C)C)cc1)c1ccccc1` [tamoxifen], for which, in series [2], the “Effect on mammographic breast density” value was “has been shown to reduce mammographic breast density”.
For the compound `CCCCCCCCCCC(=O)O[C@H]1CC[C@H]2[C@@H]3CCC4=CC(=O)CC[C@]4(C)[C@H]3CC[C@]12C` [testosterone undecanoate], the Oral bioavailability result in series [3] (by-passes the liver via the lymphatic system) is on record as “orally bioavailable”.
In the case of `C[C@]12CC[C@H]3[C@@H](CCC4=CC(=O)CC[C@@]43C)[C@@H]1CC[C@@H]2O` [testosterone], in series [3] (oral delivery), the “Fraction broken down in the liver as it is absorbed from the gut” value is reported as 80-90%. In series [3] (oral), the “Fraction broken down in the intestines by aromatase and other metabolic pathways” value is on record as “approximately 85%”.
